Measurements: US12649750B2, “Macrocyclic compounds, compositions, and methods of using thereof” (Sionna Therapeutics Inc., priority 2022, dated 2026)

Tests used:
NBD1 = target: T1, NBD1 (Homo sapiens, UniProt P13569); test: Aggregation analysis using differential static light scattering (DSLS), thermal stability of NBD1 (ΔTagg); assay type: binding; conditions: ΔTagg versus DMSO control, NBD1 0.2 mg/ml
T1 construct: Purified recombinant NBD1 was produced using previously described methods; made in house
How it was run: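 Stabilisation is measured as the shift in aggregation onset of recombinant NBD1 (0.2 mg/ml, 2 mM ATP, 5 mM MgCl2, pH7.6) exposed to compound. Images are taken every 0.5° C. while heating at 1° C. per minute, and the inflection-point Tagg is corrected by the DMSO mean.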

CFTR = target: T2, CFTR (Homo sapiens, UniProt P13569, DEL508-508); test: TECC24 AUC fold over DMSO @10 μM, CFTR-mediated transepithelial chloride transport in CF-HBE cells; assay type: cell-based; conditions: test agent AUC divided by DMSO vehicle AUC, primary CF-HBE cells, ΔF508 homozygous donor, 48 hours incubation
T2 construct: Primary human bronchial epithelial cells from a ΔF508 homozygous CF donor; host or cells: primary human bronchial epithelial cells (CF-HBE), ΔF508 homozygous donor
How it was run: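 Primary ΔF508-homozygous CF bronchial epithelial cells on inserts were incubated 48 h at 36.5 °C with compound in IL-13-containing medium. VT and TEER were then recorded in current-clamp mode (pH 7.4 HEPES bath) with benzamil 10 μM, forskolin 10 μM, then CFTR inhibitor-172 20 μM. The IEQ AUC between forskolin and inhibitor was divided by vehicle AUC.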

T1 sequence (P13569 423-646 limits assumed): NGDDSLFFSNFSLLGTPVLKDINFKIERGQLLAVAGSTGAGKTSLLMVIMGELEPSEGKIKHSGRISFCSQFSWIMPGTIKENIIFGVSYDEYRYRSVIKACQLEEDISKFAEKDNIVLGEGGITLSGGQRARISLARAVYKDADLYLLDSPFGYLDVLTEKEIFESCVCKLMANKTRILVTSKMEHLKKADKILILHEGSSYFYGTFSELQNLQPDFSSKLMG
T2 sequence (P13569 with tags, fused parts or gaps DEL508-508): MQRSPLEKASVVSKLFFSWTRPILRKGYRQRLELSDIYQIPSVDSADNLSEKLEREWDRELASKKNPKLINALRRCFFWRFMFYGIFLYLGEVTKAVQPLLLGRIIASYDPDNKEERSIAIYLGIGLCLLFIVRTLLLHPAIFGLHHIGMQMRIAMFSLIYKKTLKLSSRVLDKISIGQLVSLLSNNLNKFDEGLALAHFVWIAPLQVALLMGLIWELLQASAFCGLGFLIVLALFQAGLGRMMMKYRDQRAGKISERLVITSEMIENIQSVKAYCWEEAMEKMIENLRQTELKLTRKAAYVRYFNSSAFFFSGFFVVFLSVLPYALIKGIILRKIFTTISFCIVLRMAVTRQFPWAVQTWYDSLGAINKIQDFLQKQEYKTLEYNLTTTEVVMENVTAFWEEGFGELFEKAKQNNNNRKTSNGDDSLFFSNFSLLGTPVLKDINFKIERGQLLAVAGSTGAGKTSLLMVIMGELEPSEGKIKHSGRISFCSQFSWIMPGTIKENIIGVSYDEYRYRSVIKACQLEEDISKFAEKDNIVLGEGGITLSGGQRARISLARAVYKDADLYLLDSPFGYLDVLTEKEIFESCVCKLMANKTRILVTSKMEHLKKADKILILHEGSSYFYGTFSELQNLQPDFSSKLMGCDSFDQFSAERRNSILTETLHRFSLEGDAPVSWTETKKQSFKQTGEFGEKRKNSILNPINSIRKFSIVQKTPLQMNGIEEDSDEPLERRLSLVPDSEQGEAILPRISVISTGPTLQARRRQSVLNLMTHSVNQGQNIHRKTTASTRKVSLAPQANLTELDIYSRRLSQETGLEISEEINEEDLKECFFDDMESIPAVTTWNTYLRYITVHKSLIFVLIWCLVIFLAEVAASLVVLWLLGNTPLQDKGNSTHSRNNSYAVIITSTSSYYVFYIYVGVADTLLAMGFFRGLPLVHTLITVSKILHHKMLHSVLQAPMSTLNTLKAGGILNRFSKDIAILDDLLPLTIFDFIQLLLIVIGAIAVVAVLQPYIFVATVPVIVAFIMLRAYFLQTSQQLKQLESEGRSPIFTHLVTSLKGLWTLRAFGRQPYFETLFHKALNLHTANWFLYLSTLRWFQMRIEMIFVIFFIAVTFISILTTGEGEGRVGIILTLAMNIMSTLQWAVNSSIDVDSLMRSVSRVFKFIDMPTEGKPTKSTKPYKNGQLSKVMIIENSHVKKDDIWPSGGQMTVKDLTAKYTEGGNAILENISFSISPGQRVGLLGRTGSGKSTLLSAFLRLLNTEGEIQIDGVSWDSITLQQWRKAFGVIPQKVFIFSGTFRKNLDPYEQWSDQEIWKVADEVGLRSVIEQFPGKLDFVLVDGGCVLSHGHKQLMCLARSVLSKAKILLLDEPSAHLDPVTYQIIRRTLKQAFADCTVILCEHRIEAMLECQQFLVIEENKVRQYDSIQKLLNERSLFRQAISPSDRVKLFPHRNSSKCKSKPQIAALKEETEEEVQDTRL

SMILES	DSLS 3D (100 μM ΔT) (NBD1)	TECC (AUC, 10 μM) (CFTR)
Cn1nc2nc1-c1cc(ccc1F)Sc1c(F)cc3[nH]ccc3c1CCS(=O)(=O)CC(C)(C)CCC[C@]2(C)c1cccc(C[C@H](O)CO)c1 [Compound 287, (2S)-3-[3-[(6R)-22,28-difluoro-3,6,10,10-tetramethyl-12,12-dioxo-12λ6,24-dithia-3,4,19,30-tetrazapentacyclo[23.3.1.12,5.015,23.016,20]triaconta-1(29),2(30),4,15,17,20,22,25,27-nonaen-6-yl]phenyl]propane-1,2-diol]	C (a value greater than 10 °C and less than or equal to 25 °C is marked “C”)	C (a value between 20 and 80 is marked “C”)
Cn1nc2nc1-c1cc(ccc1F)Oc1c(F)cc3[nH]ccc3c1CCS(=O)(=O)CC(C)(C)CCC[C@]2(C)c1cccc(CC2(C(=O)O)CC2)c1 [Compound 288, 1-[[3-[(6R)-22,28-difluoro-3,6,10,10-tetramethyl-12,12-dioxo-24-oxa-12λ6-thia-3,4,19,30-tetrazapentacyclo[23.3.1.12,5.015,23.016,20]triaconta-1(29),2(30),4,15,17,20,22,25,27-nonaen-6-yl]phenyl]methyl]cyclopropanecarboxylic Acid]	C (a value greater than 10 °C and less than or equal to 25 °C is marked “C”)	C (a value between 20 and 80 is marked “C”)
Cn1nc2nc1-c1cc(ccc1F)Oc1c(F)cc3[nH]ccc3c1CCS(=O)(=O)CC(C)(C)CCC[C@]2(C)c1cccc(CC(C)(C)C(=O)O)c1 [Compound 289, 3-[3-[(6R)-22,28-difluoro-3,6,10,10-tetramethyl-12,12-dioxo-24-oxa-12λ6-thia-3,4,19,30-tetrazapentacyclo[23.3.1.12,5.015,23.016,20]triaconta-1(29),2(30),4,15,17,20,22,25,27-nonaen-6-yl]phenyl]-2,2-dimethyl-propanoic Acid]	C (a value greater than 10 °C and less than or equal to 25 °C is marked “C”)	C (a value between 20 and 80 is marked “C”)
Cn1nc2nc1-c1cc(ccn1)Oc1c(F)cc3[nH]ccc3c1CCS(=O)(=O)CC(C)(C)CCC[C@]2(C)c1cccc(CC2(C(=O)O)CC2)c1 [Compound 290, 1-[[3-[(6R)-22-fluoro-3,6,10,10-tetramethyl-12,12-dioxo-24-oxa-12λ6-thia-3,4,19,28,30-pentazapentacyclo[23.3.1.12,5.015,23.016,20]triaconta-1(29),2(30),4,15,17,20,22,25,27-nonaen-6-yl]phenyl]methyl]cyclopropanecarboxylic Acid]	C (a value greater than 10 °C and less than or equal to 25 °C is marked “C”)	C (a value between 20 and 80 is marked “C”)
Cn1nc2nc1-c1cc(ccn1)Oc1c(F)cc3[nH]ccc3c1CCS(=O)(=O)CC(C)(C)CCC[C@]2(C)c1cccc(CC(C)(C)C(=O)O)c1 [Compound 291, 3-[3-[(6R)-22-fluoro-3,6,10,10-tetramethyl-12,12-dioxo-24-oxa-12λ6-thia-3,4,19,28,30-pentazapentacyclo[23.3.1.12,5.015,23.016,20]triaconta-1(29),2(30),4,15,17,20,22,25,27-nonaen-6-yl]phenyl]-2,2-dimethyl-propanoic Acid]	C (a value greater than 10 °C and less than or equal to 25 °C is marked “C”)	C (a value between 20 and 80 is marked “C”)
C[C@@H](Cc1cccc([C@@]2(C)CCCC(C)(C)CS(=O)(=O)CCc3c(c(F)cc4[nH]ccc34)Sc3cccc(c3)-c3nc2co3)c1)C(=O)O [Compound 293, (2S)-3-[3-[(6R)-22-fluoro-6,10,10-trimethyl-12,12-dioxo-3-oxa-12λ6,24-dithia-19,30-diazapentacyclo[23.3.1.12,5.015,23.016,20]triaconta-1(29),2(30),4,15,17,20,22,25,27-nonaen-6-yl]phenyl]-2-methyl-propanoic Acid]	C (a value greater than 10 °C and less than or equal to 25 °C is marked “C”)	B (a value between 12-20 is marked “B”)
